In EP1743636A1, “Combination of a substituted pyrazoline compound and a drug used in food-related disorders” (LABORATORIOS DEL DR. ESTEVE, S.A., priority 2005, dated 2007):
Like-named read-outs stand apart in the source and are kept apart here.

Assays:
[1] = biological target: T1, transfected human CB1 receptors (Homo sapiens, UniProt P21554); assay: In-vitro determination of affinity to CB1 receptor (radioligand [3H]-CP55940); format: binding; settings: for inhibition at 1 µM: read-out: CB1-Receptor % Inhibition 10^-6 M
T1 construct: purchased Receptor Biology, Inc
Method: (§1) The in-vitro determination of the affinity of the substituted pyrazoline compounds to CB1/CB2-Rezeptors is carried out as described in the publication of Ruth A. Ross, Heather C. Brockie et al., "Agonist-inverse agonist characterization at CB1 and CB2 cannabinoid receptors of L-759633, L759656 and AM630", British Journal of Pharmacology, 126, 665-672, (1999), whereby the transfected human CB1 and CB2 receptors of Receptor Biology, Inc. are used. The radioligand used for both receptors is [^3H]-CP55940. The respective parts of the description is hereby incorporated by reference and forms part of the present disclosure. The affinity of the inventive substituted pyrazoline compounds to CB1/CB2 receptors was determined as described above.

[2] = biological target: T2, transfected human CB2 receptors (Homo sapiens, UniProt P34972); assay: In-vitro determination of affinity to CB2 receptor (radioligand [3H]-CP55940); format: binding; settings: for Ki: radioligand [3H]-CP55940; for inhibition at 1 µM: read-out: CB2-Receptor % Inhibition 10^-6 M
T2 construct: purchased Receptor Biology, Inc
Method: as §1

Male NMRI mice [3] = assay: Mouse tetrad model: hot plate analgesia; format: in vivo; settings: for Antagonistic Effect A: Hot-Plate test: 5 mg/kg i.v. prior to Win 55212-2 in a dose of 1,25mg/kg i.v.; for Agonistic effect A: Hot-Plate test: 5 mg/kg i.v., measured 15 minutes after injection
Excerpt: (§2) Substances with affinity for cannabinoid receptors are known to produce a wide range of pharmacological effects. It is also known that intravenous administration of a substance with affinity for cannabinoid receptors in mice produces analgesia , hypothermia, sedation and catalepsy. Individually, none of these effects can be considered as proof that a tested substance has affinity for cannabinoid-receptors, since all of these effects are common for various classes of centrally active agents. However, substances, which show all of these effects, i.e. substances that are active in this so-called tetrad model are considered to have affinity for the cannabinoid receptors. It has further been shown that cannabinoid receptor antagonists are higly effective in blocking the effects of a cannabinoid agonist in the mouse tetrad model.
(§3) The tetrad model is described, for example, in the publication of A. C. Howlett et al, International Union of Pharmacology XXVII. Classification of Cannabinoid Receptors, Pharmacol Rev 54, 161-202, 2002 and David R. Compton et al., "In-vivo Characterization of a Specific Cannabinoid Receptor Antagonist (SR141716A) :Inhibition of Tetrahydrocannbinol- induced Responses and Apparent Agonist Activity", J. Pharmacol. Exp. Ther. 277 , 2, 586-594, 1996. The corresponding parts of the description are hereby incorporated by reference. […]
(§4) Before testing in the behavioral procedures given below, mice are acclimatized to the experimental setting. Pre-Treatment control values are determined for analgesia hot plate latency (in seconds), rectal temperature, sedation and catalepsy.
(§5) In order to determine the agonistic activty of the substance to be tested, the mice are injected intravenously with the substance to be tested or the vehicle alone. 15 minutes after injection, latency in hot plate analgesia is measured. Rectal temperature, sedation and catalepsy are measured 20 minutes after injection.
(§6) In order to determine the antagonistic activity the identical procedure is used as for the determination of the agonistic effects, but with the difference that the substance to be evaluated for its antagonistic activity is injectected 5 minutes before the intravenous injection of 1.25 mg/kg Win-55,212 a known cannabinoid-receptor agonist.
The hot plate analgesia is determined according to the method described in Woolfe D. et al. "The evaluation of analgesic action of pethidine hydrochloride (Demerol)", J. Pharmacol. Exp. Ther. 80, 300-307,1944. […]
The mice are placed on a hot plate (Harvard Analgesimeter) at 55 ± 0.5 °C until they show a painful sensation by licking their paws or jumping and the time for these sensations to occur is recorded. This reading is considered the basal value (B). […]
(§7) The determinination of cannabinoid activity in-vivo was determined as described above. […]

Male NMRI mice [4] = assay: Mouse tetrad model: hypothermia; format: in vivo; settings: for Antagonistic Effect B: Hypothermia: 5 mg/kg i.v. prior to Win 55212-2 in a dose of 1,25mg/kg i.v.; for Agonistic effect B: Hypothermia: 5 mg/kg i.v., measured 20 minutes after injection
Excerpt: as §2, §3, §4, §5, §6
Hypothermia is determined according to the method described in David R. Compton et al. "In-vivo Characterization of a Specific Cannabinoid Receptor Antagonist (SR141716A) Inhibition of Tetrahydrocannbinol- induced Responses and Apparent Agonist Activity", J. Pharmacol Exp Ther. 277 , 2, 586-594, 1996. […]
The base-line rectal temperatures are determined with a thermometer (Yello Springs Instruments Co., Panlabs) and a thermistor probe inserted to 25mm before the administration of the substance to be tested. […]

Male NMRI mice [5] = assay: Mouse tetrad model: catalepsy; format: in vivo; settings: for Antagonistic Effect C: Catalepsy: 5 mg/kg i.v. prior to Win 55212-2 in a dose of 1,25mg/kg i.v.; for Agonistic effect C: Catalepsy: 5 mg/kg i.v., measured 20 minutes after injection
Excerpt: as §2, §3, §4, §5, §6
Catalepsy is determined according to the method described in Alpermann H. G. et al. "Pharmacological effets of Hoe 249: A new potential antidepressant", Drugs Dev. […]
The cataleptic effect of the substance to be tested is evaluated according to the duration of catalepsy, whereby the animals are placed head downwards with their kinlegs upon the top of the wooden block. […]
The percentage of catalepsy is determined according ot the following formula: %Catalepsy = arithmetic mean/6 × 100 [formula] […]

Male NMRI mice [6] = assay: Mouse tetrad model: sedation and ataxia; format: in vivo; settings: for Antagonistic Effect D: Sedation: 5 mg/kg i.v. prior to Win 55212-2 in a dose of 1,25mg/kg i.v.; for Agonistic effect D: Sedation: 5 mg/kg i.v., measured 20 minutes after injection
Excerpt: as §2
The tetrad model is described, for example, in the publication of A. C. Howlett et al, International Union of Pharmacology XXVII. Classification of Cannabinoid Receptors, Pharmacol Rev 54, 161-202, 2002 and David R. Compton et al., "In-vivo Characterization of a Specific Cannabinoid Receptor Antagonist (SR141716A) :Inhibition of Tetrahydrocannbinol- induced Responses and Apparent Agonist Activity", J. Pharmacol. Exp. Ther. 277 , 2, 586-594, 1996. The corresponding parts of the description are hereby incorporated by reference.
Male NMRI mice with a weight of 20-30 g (Harlan, Barcelona, Spain) are used in all of the following experiments.
as §4, §5, §6
Sedation and ataxia is determined according to the method described in Desmet L. K. C. et al. "Anticonvulsive properties of Cinarizine and Flunarizine in Rats and Mice", Arzneim. -Forsch. (Frug Res) 25, 9, 1975. […]
The percentage of sedation is determined according to the formula: %of sedation = arithmetic mean/3 × 100 [formula]
as §7

T2 sequence (P34972 whole entry): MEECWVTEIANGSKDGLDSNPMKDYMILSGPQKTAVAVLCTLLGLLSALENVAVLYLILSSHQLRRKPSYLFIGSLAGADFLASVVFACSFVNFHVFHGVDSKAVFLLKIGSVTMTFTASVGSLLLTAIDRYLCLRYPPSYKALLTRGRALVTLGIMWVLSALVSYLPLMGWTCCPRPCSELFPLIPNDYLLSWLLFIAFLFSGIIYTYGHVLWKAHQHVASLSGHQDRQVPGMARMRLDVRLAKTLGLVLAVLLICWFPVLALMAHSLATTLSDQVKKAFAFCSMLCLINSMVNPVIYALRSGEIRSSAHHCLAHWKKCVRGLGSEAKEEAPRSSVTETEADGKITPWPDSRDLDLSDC
T1 sequence (P21554 whole entry): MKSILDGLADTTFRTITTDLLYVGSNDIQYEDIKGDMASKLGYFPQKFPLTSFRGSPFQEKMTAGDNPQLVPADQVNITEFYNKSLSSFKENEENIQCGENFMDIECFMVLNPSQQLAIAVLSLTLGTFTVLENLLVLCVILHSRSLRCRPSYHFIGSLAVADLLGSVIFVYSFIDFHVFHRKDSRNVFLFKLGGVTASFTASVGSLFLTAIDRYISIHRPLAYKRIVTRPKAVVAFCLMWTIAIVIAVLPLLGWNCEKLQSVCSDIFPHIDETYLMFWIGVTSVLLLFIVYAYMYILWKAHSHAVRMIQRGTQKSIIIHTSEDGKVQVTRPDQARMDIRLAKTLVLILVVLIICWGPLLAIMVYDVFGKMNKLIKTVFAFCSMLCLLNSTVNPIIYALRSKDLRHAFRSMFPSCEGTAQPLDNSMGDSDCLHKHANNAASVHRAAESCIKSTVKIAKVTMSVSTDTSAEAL

SMILES | Ki [1] [µM] | inhibition at 1 µM [1] [%] | Ki [2] [µM] | inhibition at 1 µM [2] [%] | Antagonistic Effect A: Hot-Plate test (Male NMRI mice [3]) | Agonistic effect A: Hot-Plate test (Male NMRI mice [3]) | Antagonistic Effect B: Hypothermia (Male NMRI mice [4]) | Agonistic effect B: Hypothermia (Male NMRI mice [4]) | Antagonistic Effect C: Catalepsy (Male NMRI mice [5]) | Agonistic effect C: Catalepsy (Male NMRI mice [5]) | Antagonistic Effect D: Sedation (Male NMRI mice [6]) | Agonistic effect D: Sedation (Male NMRI mice [6]) | Ki ([1]; radioligand [3H]-CP55940, read-out: CB1-Receptor Ki) [µM]
O=C(NN1CCCCC1)C1=NN(c2ccc(Cl)cc2Cl)C(c2ccc(Cl)cc2)C1 (stereo not drawn) [Example 1, N-piperidinyl-5-(4-chlorophenyl)-1-(2,4-dichlorophenyl)-4,5-dihydro-1H-pyrazole-3-carboxamide] | < 0.025 | 93 | > 1 | 33 | 74 | 0 | 100 | 0 | 100 | 0 | 100 | 0 | 
O=C(C1=NN(c2ccc(Cl)cc2Cl)C(c2ccc(Cl)cc2)C1)N1CCCCC1 (stereo not drawn) [Example 5, [5-(4-Chloro-phenyl)-1-(2,4-dichloro-phenyl)-4,5-dihydro-1H-pyrazol-3-yl]-piperidin-1-yl-methanone] |  | 79 | ~1 | 54 | 50 | 0 | 40 | 50 | 20 | 0 | 20 | 0 | 0.111
